Laboratory results: PubChem BioAssay (NCI)
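Protocol summary: plate cells (96-well), add compound at 5 concentrations, incubate 48 h, interpolate endpoints linearly. At the GI50, growth is halved. The concentration for full growth arrest is given as TGI.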

Experiments:
Experiment in all cases: inhibition of tumour cell growth, NCI panel, 48 h
786-0 renal = system: 786-0 renal
A498 renal = system: A498 renal
A549 NSCLC = system: A549 NSCLC
ACHN renal = system: ACHN renal
CCRF-CEM leukemia = system: CCRF-CEM leukemia
COLO 205 colon = system: COLO 205 colon
DU-145 prostate = system: DU-145 prostate
EKVX NSCLC = system: EKVX NSCLC
HCC-2998 colon = system: HCC-2998 colon
HCT-116 colon = system: HCT-116 colon
HCT-15 colon = system: HCT-15 colon
HL-60(TB) leukemia = system: HL-60(TB) leukemia
HOP-62 NSCLC = system: HOP-62 NSCLC
HOP-92 NSCLC = system: HOP-92 NSCLC
HS 578T breast = system: HS 578T breast
HT29 colon = system: HT29 colon
IGROV1 ovarian = system: IGROV1 ovarian
KM12 colon = system: KM12 colon
LOX IMVI melanoma = system: LOX IMVI melanoma
M14 melanoma = system: M14 melanoma
MALME-3M melanoma = system: MALME-3M melanoma
MCF7 breast = system: MCF7 breast
MDA-MB-231 breast = system: MDA-MB-231 breast
MDA-MB-435 = system: MDA-MB-435
MOLT-4 leukemia = system: MOLT-4 leukemia
NCI-H226 lung = system: NCI-H226 lung
NCI-H23 lung = system: NCI-H23 lung
NCI-H460 lung = system: NCI-H460 lung
NCI-H522 lung = system: NCI-H522 lung
NCI/ADR-RES ovarian = system: NCI/ADR-RES ovarian
OVCAR-3 ovarian = system: OVCAR-3 ovarian
OVCAR-4 ovarian = system: OVCAR-4 ovarian
OVCAR-5 ovarian = system: OVCAR-5 ovarian
OVCAR-8 ovarian = system: OVCAR-8 ovarian
PC-3 prostate = system: PC-3 prostate
RXF 393 renal = system: RXF 393 renal
SF-268 CNS = system: SF-268 CNS
SF-295 CNS = system: SF-295 CNS
SF-539 CNS = system: SF-539 CNS
SK-MEL-28 melanoma = system: SK-MEL-28 melanoma
SK-MEL-5 melanoma = system: SK-MEL-5 melanoma
SK-OV-3 ovarian = system: SK-OV-3 ovarian
SN12C renal = system: SN12C renal
SNB-19 CNS = system: SNB-19 CNS
SNB-75 CNS = system: SNB-75 CNS
SR leukemia = system: SR leukemia
SW-620 colon = system: SW-620 colon
T-47D breast = system: T-47D breast
TK-10 renal = system: TK-10 renal
UACC-257 melanoma = system: UACC-257 melanoma
UACC-62 melanoma = system: UACC-62 melanoma
UO-31 renal = system: UO-31 renal

Structure (SMILES): OCCCc1n(Cc2ccc3ccccc3c2)c2ccccc2[n+]1Cc1ccc2ccccc2c1
- GI50 (786-0 renal): 2090 nM
- TGI (786-0 renal): 4.74 µM
- GI50 (A498 renal): 1380 nM
- TGI (A498 renal): 5.18 µM
- GI50 (A549 NSCLC): 6.97 µM
- TGI (A549 NSCLC): 31.4 µM
- GI50 (ACHN renal): 12.5 µM
- TGI (ACHN renal): 28 µM
- GI50 (CCRF-CEM leukemia): 1990 nM
- TGI (CCRF-CEM leukemia): 5.65 µM
- GI50 (COLO 205 colon): 838 nM
- TGI (COLO 205 colon): 2530 nM
- GI50 (DU-145 prostate): 3.52 µM
- TGI (DU-145 prostate): 14.2 µM
- GI50 (EKVX NSCLC): 3.68 µM
- TGI (EKVX NSCLC): 19.4 µM
- GI50 (HCC-2998 colon): 1650 nM
- TGI (HCC-2998 colon): 3.25 µM
- GI50 (HCT-116 colon): 1050 nM
- TGI (HCT-116 colon): 2590 nM
- GI50 (HCT-15 colon): 11.2 µM
- TGI (HCT-15 colon): 24.8 µM
- GI50 (HL-60(TB) leukemia): 507 nM
- TGI (HL-60(TB) leukemia): 2360 nM
- GI50 (HOP-62 NSCLC): 2320 nM
- TGI (HOP-62 NSCLC): 11.6 µM
- GI50 (HOP-92 NSCLC): 567 nM
- TGI (HOP-92 NSCLC): 3.1 µM
- GI50 (HS 578T breast): 2150 nM
- TGI (HS 578T breast): 7.96 µM
- GI50 (HT29 colon): 1020 nM
- TGI (HT29 colon): 4.17 µM
- GI50 (IGROV1 ovarian): 800 nM
- TGI (IGROV1 ovarian): 2480 nM
- GI50 (KM12 colon): 1400 nM
- TGI (KM12 colon): 3.08 µM
- GI50 (LOX IMVI melanoma): 1340 nM
- TGI (LOX IMVI melanoma): 2680 nM
- GI50 (M14 melanoma): 1330 nM
- TGI (M14 melanoma): 3.56 µM
- GI50 (MALME-3M melanoma): 1280 nM
- TGI (MALME-3M melanoma): 2820 nM
- GI50 (MCF7 breast): 1700 nM
- TGI (MCF7 breast): 3.67 µM
- GI50 (MDA-MB-231 breast): 1320 nM
- TGI (MDA-MB-231 breast): 2780 nM
- GI50 (MDA-MB-435): 1220 nM
- TGI (MDA-MB-435): 2710 nM
- GI50 (MOLT-4 leukemia): 1880 nM
- TGI (MOLT-4 leukemia): 5.24 µM
- GI50 (NCI-H226 lung): 2230 nM
- TGI (NCI-H226 lung): 10.5 µM
- GI50 (NCI-H23 lung): 1650 nM
- TGI (NCI-H23 lung): 8.17 µM
- GI50 (NCI-H460 lung): 2430 nM
- TGI (NCI-H460 lung): 9.57 µM
- GI50 (NCI-H522 lung): 1050 nM
- TGI (NCI-H522 lung): 3.95 µM
- GI50 (NCI/ADR-RES ovarian): 27 µM
- TGI (NCI/ADR-RES ovarian): > 100 µM
- GI50 (OVCAR-3 ovarian): 1070 nM
- TGI (OVCAR-3 ovarian): 2810 nM
- GI50 (OVCAR-4 ovarian): 670 nM
- TGI (OVCAR-4 ovarian): 6.73 µM
- GI50 (OVCAR-5 ovarian): 1980 nM
- TGI (OVCAR-5 ovarian): 7.17 µM
- GI50 (OVCAR-8 ovarian): 2670 nM
- TGI (OVCAR-8 ovarian): 14 µM
- GI50 (PC-3 prostate): 1740 nM
- TGI (PC-3 prostate): 11.1 µM
- GI50 (RXF 393 renal): 1500 nM
- TGI (RXF 393 renal): 3.83 µM
- GI50 (SF-268 CNS): 1810 nM
- TGI (SF-268 CNS): 4.56 µM
- GI50 (SF-295 CNS): 2640 nM
- TGI (SF-295 CNS): 11.3 µM
- GI50 (SF-539 CNS): 2010 nM
- TGI (SF-539 CNS): 6.51 µM
- GI50 (SK-MEL-28 melanoma): 1220 nM
- TGI (SK-MEL-28 melanoma): 2880 nM
- GI50 (SK-MEL-5 melanoma): 1110 nM
- TGI (SK-MEL-5 melanoma): 2320 nM
- GI50 (SK-OV-3 ovarian): 2870 nM
- TGI (SK-OV-3 ovarian): 13.6 µM
- GI50 (SN12C renal): 1850 nM
- TGI (SN12C renal): 10.2 µM
- GI50 (SNB-19 CNS): 1270 nM
- TGI (SNB-19 CNS): 2850 nM
- GI50 (SNB-75 CNS): 1590 nM
- TGI (SNB-75 CNS): 4.97 µM
- GI50 (SR leukemia): 1160 nM
- TGI (SR leukemia): 3.78 µM
- GI50 (SW-620 colon): 1460 nM
- TGI (SW-620 colon): 3.22 µM
- GI50 (T-47D breast): 615 nM
- TGI (T-47D breast): 6.82 µM
- GI50 (TK-10 renal): 1950 nM
- TGI (TK-10 renal): 4.74 µM
- GI50 (UACC-257 melanoma): 1180 nM
- TGI (UACC-257 melanoma): 3.25 µM
- GI50 (UACC-62 melanoma): 666 nM
- TGI (UACC-62 melanoma): 2090 nM
- GI50 (UO-31 renal): 10.4 µM
- TGI (UO-31 renal): 25.3 µM
